Laboratory results reported in patent US12502369B2, “Methods of cancer treatment” (K-GEN, INC., priority 2015, dated 2025).
Where two headings read alike, the source gives them in different places.

Columns and labels:
CaMKii (Thr286) = assay: CaMKii phosphorylation in pancreatic cancer cell lines, Western blot; assay type: cell-based; details: Panc1 or Panc2.13 cells; 24 or 48 hours; K-101A 0.5 and 2.5 μM, K-102 0.1 and 0.5 μM
Method: Cells were lysed in a protein lysis buffer (1 ml of 10×TNE [20 mL 1M Tris pH7.5; 30 mL 5M NaCl; 2 mL 0.5M EDTA; 48 mL d2H2O], 1 ml of 10% NP40, 7.7 mL of dH2O, 100 μL of 10× Protease inhibitors, 100 μL of 10× Phosphatase inhibitors, and 10 μl DTT). Protein quantification, SDS-PAGE, and Western blot procedures were performed as described in Example 2. […] The effect was more apparent at 48 hours. Phospho-CaMKii (T286) is a marker for activation of CaMKii kinase in the Wnt/Ca^2′ signaling pathway when K-Ras and CaM are dissociated (Wang et al., 2015, Cell. 163(5):1237-51).

A549 cells = assay: Soft agar colony formation assay; assay type: cell-based; details: 7-10 days, 9-point dilution series
Method: To prepare the base agar layer (0.6%), melted 1.2% agar solution was mixed 1:1 (v/v) with 2×DMEM/20% FBS medium in a tube by inverting several times and 50 μL of the mixture was immediately transferred to a well in a 96-well flat-bottom microplate. The plate was placed at 4° C. for 30 minutes to allow the base agar layer to solidify. Then, the cell agar layer (agar 0.4%) was prepared by transferring 75 μL of the cell and agar mixture containing 1:1:1 (v/v/v) of 1.2% agar solution, 2×DMEM/20% FBS and cell suspension (0.4-4×10^5/mL) to each well of the plates so that each well contained 1000-10000 cells per well. The plates were placed at 4° C. for 15 minutes and then 75 μL of media were added to each well. After incubating the plates overnight in a CO2 incubator, 50 μL of media with or without 5× final concentrations of compounds were added to each well. Each compound was tested in 9-point 3-fold dilution series. The plates were incubated for 7-10 days at 37° C. At the end of incubation period, 28 μL of Calcein AM solution (5 μM) was added to the center of each well. The plates were incubated at 37° C. for 45 minutes before scanning on Acumen (TTP Labtech). Each compound was tested in triplicates. Data was analyzed and compound EC50s were calculated using GraphPad Prism 5.

SW620 = assay: Proliferation assay (CellTiter Glo), SW620; assay type: cell-based; details: for Top inhibition %: 96 hours; for EC50: read-out: Ab EC50
Method: (§1) Briefly, cells at a density of 1,000-10,000 cells/well were seeded in 96-well plates and incubated at 37′C for 24 hours. A series of 9 different concentrations of compound stocks (500×) were created by 3-fold serial dilution in DMSO. These compounds were further diluted in culture media and then added to cells so that the final DMSO concentration was 0.2%. After 96 hours of incubation, 50 μL of CellTiter Glo reagent (Promega) was added to each well and luminescence was measured after 10 minutes using EnVision (PerkinElmer). […] The dose range for most compounds was 4.6 nM-30 μM. The dose ranges for some compounds were adjusted downward to 0.46 nM-3 μM or 0.08 nM-0.5 μM or 0.03 nM-0.2 μM. Luminescence from cells treated with […] alone was set as Max and % of inhibition was calculated as follows: Inhibition %=(Max-Sample value)/Max*100. Data was analyzed using XL-fit software (ID Business Solutions Ltd.) and EC50, relative EC50, and % of top inhibition were calculated. The results are shown in Tables 3-6 for pancreatic cancer, lung cancer, colon/gastric cancer, and leukemia cell lines.

[1] = system: PKC substrates in Panc2.13 cells; assay: Global PKC activation (phosphorylated PKC substrates), Western blot, Panc2.13; assay type: cell-based; details: Phospho-(Ser) PKC Substrate Antibody
Method: (§2) A549 lung cancer cells (˜3 million cells) were seeded in 10 cm tissue culture dishes and grown overnight. Cells were then treated with different drugs at indicated concentrations (see FIG. 9A for global activation of PKC and FIG. 10 for activation of PKC isoforms) for 30 minutes. Panc2.13 pancreatic cells (˜5 million) were seeded and treated as in FIG. 9B for global activation of PKC. Cell lysate preparation, protein quantitation, SDS-PAGE, and Western blotting procedures are described in Example 2. Primary antibodies used in this Example and later Examples of this application are shown in Table A. Western blot membranes were scanned using Odyssey® Imaging System (Licor Biosciences) if secondary antibodies Anti-mouse IgG Dylight 800 conjugate or Anti-rabbit IgG DyLight 680 conjugate (1:10000)(Cell signaling or similar IR 2nd antibodies from different vendors) were used. Alternatively, Imagequant LAS4000 (GE) was used to scan membranes if secondary antibodies Anti-mouse IgG HRP conjugate or Anti-rabbit IgG HRP conjugate (dilutions from 1:2000-1:10000) were used.

[2] = system: PKCμ and PKCδ in HFL-1 cells; assay: Activation of PKC isoforms in non-cancerous lung fibroblast HFL-1 cells; assay type: cell-based, human; details: 30 minutes
[3] = system: PKC substrates in A549 cells; assay: Global PKC activation (phosphorylated PKC substrates), Western blot, A549; assay type: cell-based; details: 30 minutes, Phospho-PKC substrate Motif MultiMab
Method: as §2

[4] = system: PKC isoforms in A549 cells; assay: Activation of PKC isoforms, Western blot, A549; assay type: cell-based; details: 30 minutes; for P-PKC (pan)(βII Ser660) and P-PKCα/β (Thr638/641): high levels already in DMSO treated cells
Method: as §2

RPMI8226 = assay: Proliferation assay (CellTiter Glo), RPMI8226; assay type: cell-based; details: RPMI8226 (K-ras: G12A)
Method: as §1, with “calculated.” for “calculated. The results are shown in Tables 3-6 for pancreatic cancer, lung cancer, colon/gastric cancer, and leukemia cell lines.”
Other cancer cell lines having wild-type K-ras status and K-ras mutation at G12 were also screened using the PKC activator compounds. […] K-104 was tested in a range of 0.03 nM-0.2 μM. […] The dose ranges were adjusted downward to 0.46 nM-3 μM for K-102 and 0.08 nM-0.5 μM for K-103 for some cell lines.

CCRF-CEM = assay: Proliferation assay (CellTiter Glo), CCRF-CEM; assay type: cell-based; details: for Top inhibition %: 96 hours
Method: as §1

SMILES: CC(=O)O[C@@]12C[C@@H](C)[C@]3(O)C4C=C(C)C(=O)[C@@]4(O)CC(CO)=C[C@H]3[C@@H]1C2(C)C (stereo partly drawn) [Compound K-101A, Prostratin]
- phosphorylation on CaMKii at Thr286 (CaMKii (Thr286)): induced phosphorylation
- number of colonies formed in soft agar (A549 cells): reduced the number of colonies
- Top inhibition % (SW620): 0.0%
- EC50 (SW620; Homo sapiens, SW-620, absolute EC50, 96 hours): > 30 µM
- phosphorylation of PKC substrates (global activation of PKC) [1]: induced dose-dependent phosphorylation
- phosphorylation of PKCμ at Ser916 and Ser744/748, and PKCδ at Thr505 and Tyr311 [2]: resulted in phosphorylation
- phosphorylation of PKC substrates (global activation of PKC) [3]: induced dose-dependent phosphorylation
- P-PKCδ (Thr505) and P-PKCδ/θ (Ser643/676) [4]: dose-dependent increases
- P-PKC (pan)(βII Ser660) and P-PKCα/β (Thr638/641) [4]: no further increases
- Top inhibition % (RPMI8226): 32.39%
- Top inhibition % (CCRF-CEM): 35.9%
- EC50 (CCRF-CEM; Homo sapiens, absolute EC50, 96 hours, read-out: Ab EC50): > 30 µM
- EC50 (CCRF-CEM; Homo sapiens, relative EC50, 96 hours, read-out: Re EC50): 0.051 µM

SMILES: CC(=O)OCC1=C[C@H]2[C@@H]3C(C)(C)[C@]3(OC(C)=O)C[C@@H](C)[C@]2(O)C2C=C(C)C(=O)[C@@]2(O)C1 (stereo partly drawn) [Compound K-101E]
- number of colonies formed in soft agar (A549 cells): reduced the number of colonies
- Top inhibition % (SW620): 0.0%
- EC50 (SW620; absolute EC50, 96 hours): > 30 µM
- phosphorylation of PKC substrates (global activation of PKC) [1]: nearly no effect
- phosphorylation of PKC substrates (global activation of PKC) [3]: nearly no effect
- P-PKCδ (Thr505) and P-PKCδ/θ (Ser643/676) [4]: no effects
- Top inhibition % (RPMI8226): 32.25%
- Top inhibition % (CCRF-CEM): 34.3%
- EC50 (CCRF-CEM; absolute EC50, 96 hours, read-out: Ab EC50): > 30 µM
- EC50 (CCRF-CEM; relative EC50, 96 hours, read-out: Re EC50): 0.27 µM

SMILES: C/C=C(/C)C(=O)O[C@H]1C(C)=C[C@]23C(=O)[C@@H](C=C(CO)[C@@H](O)[C@]12O)[C@H]1[C@@H](C[C@H]3C)C1(C)C [Compound K-102, Ingenol-3-angelate, reference compound]
- phosphorylation on CaMKii at Thr286 (CaMKii (Thr286)): induced phosphorylation
- number of colonies formed in soft agar (A549 cells): reduced the number of colonies
- phosphorylation of PKC substrates (global activation of PKC) [1]: induced dose-dependent phosphorylation
- phosphorylation of PKCμ at Ser916 and Ser744/748, and PKCδ at Thr505 and Tyr311 [2]: resulted in phosphorylation
- phosphorylation of PKC substrates (global activation of PKC) [3]: induced dose-dependent phosphorylation
- P-PKCδ (Thr505) and P-PKCδ/θ (Ser643/676) [4]: dose-dependent increases
- P-PKC (pan)(βII Ser660) and P-PKCα/β (Thr638/641) [4]: no further increases
